Test results taken from ChEMBL document CHEMBL1201862, “PubChem BioAssay data set” (2004).
Active and inactive are the calls of the source.

Tests used:
[1] = target: G-protein coupled receptor 55 (Homo sapiens, UniProt Q9Y2T6); experiment: selective activators of receptor GPR55 – imaging, U2OS cells, beta-arrestin-GFP redistribution, primary screen (AID 1961); type: functional
[2] = target: Glucose-6-phosphate 1-dehydrogenase (Homo sapiens, UniProt P11413); experiment: inhibition of Homo sapiens G6PD, dose series – biochemical, fluorescence, selectivity assay for P. falciparum G6PD inhibitor project, dose response (AID 504792); type: functional
Glucose-6-phosphate 1-dehydrogenase, sequence (P11413 whole entry): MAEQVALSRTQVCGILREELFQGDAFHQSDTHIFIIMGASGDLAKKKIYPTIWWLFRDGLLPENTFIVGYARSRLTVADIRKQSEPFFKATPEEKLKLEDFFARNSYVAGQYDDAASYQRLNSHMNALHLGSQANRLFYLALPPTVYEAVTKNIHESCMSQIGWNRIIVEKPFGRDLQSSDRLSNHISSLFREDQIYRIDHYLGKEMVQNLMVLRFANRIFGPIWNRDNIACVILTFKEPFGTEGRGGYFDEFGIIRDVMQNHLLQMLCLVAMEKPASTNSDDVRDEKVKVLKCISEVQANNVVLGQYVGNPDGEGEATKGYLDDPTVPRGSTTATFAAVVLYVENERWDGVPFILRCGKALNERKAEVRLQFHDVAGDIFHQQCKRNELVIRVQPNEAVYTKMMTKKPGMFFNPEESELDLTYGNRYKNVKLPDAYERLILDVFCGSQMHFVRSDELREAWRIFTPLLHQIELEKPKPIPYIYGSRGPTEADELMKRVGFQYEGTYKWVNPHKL

[3] = target: Trypsin (Sus scrofa, UniProt P00761); experiment: trypsin protease activity blockade – biochemical, quenched peptide fluorescence, cherry-pick, selectivity assay for Rce1 protease inhibitor project, dose response (AID 488789)
Trypsin, sequence (P00761 whole entry): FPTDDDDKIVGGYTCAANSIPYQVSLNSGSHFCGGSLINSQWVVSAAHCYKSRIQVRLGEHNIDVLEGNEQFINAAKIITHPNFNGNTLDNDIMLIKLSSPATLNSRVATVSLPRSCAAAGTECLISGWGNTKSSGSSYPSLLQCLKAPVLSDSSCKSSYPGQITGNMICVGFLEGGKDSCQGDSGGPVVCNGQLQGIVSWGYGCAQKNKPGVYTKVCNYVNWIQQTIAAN

[4] = target: T1, CAAX prenyl protease 2 (Saccharomyces cerevisiae S288c, UniProt Q03530); type: biochemical
T1 sequence (Q03530 whole entry): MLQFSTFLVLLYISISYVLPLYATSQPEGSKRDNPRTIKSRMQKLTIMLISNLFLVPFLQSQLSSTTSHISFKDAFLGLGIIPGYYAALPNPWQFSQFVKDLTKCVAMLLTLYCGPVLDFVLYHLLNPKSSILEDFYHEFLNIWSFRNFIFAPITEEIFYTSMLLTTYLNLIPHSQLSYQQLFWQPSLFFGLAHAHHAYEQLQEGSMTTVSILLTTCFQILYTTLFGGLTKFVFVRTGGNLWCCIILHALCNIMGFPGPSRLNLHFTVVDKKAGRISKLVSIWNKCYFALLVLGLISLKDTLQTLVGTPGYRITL

[5] = toxicity toward cultured mammalian cells – cell-based, plate reader, cherry-pick samples, cytotoxicity control, dose response (AID 504397); type: functional
[6] = target: T2, Bcl-2-related protein A1 (Mus musculus, UniProt Q07440); type: functional;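 note: confirmatory dose–response counterscreen on Bfl-1, used to check hits from a UBC13 polyubiquitin inhibitor campaign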
T2 sequence (Q07440 whole entry): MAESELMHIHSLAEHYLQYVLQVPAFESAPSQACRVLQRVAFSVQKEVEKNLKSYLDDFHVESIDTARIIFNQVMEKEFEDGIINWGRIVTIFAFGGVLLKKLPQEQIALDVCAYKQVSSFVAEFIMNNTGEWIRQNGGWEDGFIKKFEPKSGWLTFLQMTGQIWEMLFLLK

[7] = target: T3, Ubiquitin-conjugating enzyme E2 N (Homo sapiens, UniProt P61088); type: functional
T3 sequence (P61088 whole entry): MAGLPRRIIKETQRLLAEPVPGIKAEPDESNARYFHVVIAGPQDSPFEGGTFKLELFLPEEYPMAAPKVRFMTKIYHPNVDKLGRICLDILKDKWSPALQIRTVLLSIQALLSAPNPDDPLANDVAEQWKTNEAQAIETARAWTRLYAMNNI

[8] = target: T3, Ubiquitin-conjugating enzyme E2 N; type: functional; remark: listed apart in the source
[9] = target: T4, Apoptotic protease-activating factor 1 (Homo sapiens, UniProt O14727); type: functional
T4 sequence (O14727 whole entry): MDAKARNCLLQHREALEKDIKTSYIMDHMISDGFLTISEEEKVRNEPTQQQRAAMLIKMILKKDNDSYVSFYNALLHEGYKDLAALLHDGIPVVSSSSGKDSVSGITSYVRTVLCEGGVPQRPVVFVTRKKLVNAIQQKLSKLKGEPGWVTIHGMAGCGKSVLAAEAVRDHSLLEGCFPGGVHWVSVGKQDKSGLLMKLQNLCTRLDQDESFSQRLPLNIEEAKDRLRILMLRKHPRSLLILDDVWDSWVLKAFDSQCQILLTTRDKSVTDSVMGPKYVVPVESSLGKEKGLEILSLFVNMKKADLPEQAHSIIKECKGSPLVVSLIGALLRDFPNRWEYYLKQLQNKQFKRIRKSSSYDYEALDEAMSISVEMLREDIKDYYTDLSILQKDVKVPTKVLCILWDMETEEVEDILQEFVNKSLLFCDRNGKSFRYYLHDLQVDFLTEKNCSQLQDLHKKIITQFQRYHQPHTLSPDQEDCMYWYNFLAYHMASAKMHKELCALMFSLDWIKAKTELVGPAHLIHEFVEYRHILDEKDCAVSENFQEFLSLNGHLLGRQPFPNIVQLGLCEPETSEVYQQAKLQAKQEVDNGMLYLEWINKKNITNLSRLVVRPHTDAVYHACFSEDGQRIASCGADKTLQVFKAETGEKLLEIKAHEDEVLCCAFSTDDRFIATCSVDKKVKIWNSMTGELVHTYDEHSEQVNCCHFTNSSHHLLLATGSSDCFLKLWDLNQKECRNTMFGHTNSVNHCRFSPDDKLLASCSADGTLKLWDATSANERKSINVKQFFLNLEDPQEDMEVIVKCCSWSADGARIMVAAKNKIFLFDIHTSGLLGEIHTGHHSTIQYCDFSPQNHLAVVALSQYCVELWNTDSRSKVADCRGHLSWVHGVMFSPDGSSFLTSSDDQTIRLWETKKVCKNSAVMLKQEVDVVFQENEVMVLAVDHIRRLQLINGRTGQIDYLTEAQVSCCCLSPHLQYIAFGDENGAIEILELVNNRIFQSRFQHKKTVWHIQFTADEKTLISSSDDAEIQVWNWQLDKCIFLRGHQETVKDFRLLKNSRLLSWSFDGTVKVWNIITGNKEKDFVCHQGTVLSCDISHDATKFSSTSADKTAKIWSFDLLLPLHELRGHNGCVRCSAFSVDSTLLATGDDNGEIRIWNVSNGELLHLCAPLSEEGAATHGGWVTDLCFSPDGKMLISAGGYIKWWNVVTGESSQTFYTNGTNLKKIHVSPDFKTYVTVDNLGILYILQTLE

[10] = target: Melanocortin receptor 4 (Homo sapiens, UniProt P32245); type: functional, cell-based;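 note: Cell-based assay with luminescence read-out, confirmatory dose-response testing for agonist activity of biased ligands at MC4R; human U2OS cells with tagged receptor and beta-arrestin; potency of agonists that increase receptor coupling to beta-arrestin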
Melanocortin receptor 4, sequence (P32245 whole entry): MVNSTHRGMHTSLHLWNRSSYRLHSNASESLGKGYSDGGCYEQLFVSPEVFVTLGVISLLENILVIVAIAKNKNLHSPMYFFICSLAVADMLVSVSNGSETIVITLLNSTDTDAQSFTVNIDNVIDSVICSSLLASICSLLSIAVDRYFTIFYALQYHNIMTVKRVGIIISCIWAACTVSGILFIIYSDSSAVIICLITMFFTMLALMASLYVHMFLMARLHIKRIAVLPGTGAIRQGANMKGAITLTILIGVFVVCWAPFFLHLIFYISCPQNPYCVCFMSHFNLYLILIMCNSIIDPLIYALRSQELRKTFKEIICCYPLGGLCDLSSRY

[11] = cytotoxicity toward MDA-MB-231 breast cancer cells – cell-based, CellTiter-Glo luminescence, cherry-pick, cytotoxicity control for RAD54 inhibitor project, dose response (AID 651692); type: functional
[12] = target: DNA repair and recombination protein RAD54-like (Homo sapiens, UniProt Q92698); experiment: RAD54 Holliday junction migration blockers – biochemical, fluorescence, cherry-picked samples, dose series, confirmation (AID 651657); type: functional
DNA repair and recombination protein RAD54-like, sequence (Q92698 whole entry): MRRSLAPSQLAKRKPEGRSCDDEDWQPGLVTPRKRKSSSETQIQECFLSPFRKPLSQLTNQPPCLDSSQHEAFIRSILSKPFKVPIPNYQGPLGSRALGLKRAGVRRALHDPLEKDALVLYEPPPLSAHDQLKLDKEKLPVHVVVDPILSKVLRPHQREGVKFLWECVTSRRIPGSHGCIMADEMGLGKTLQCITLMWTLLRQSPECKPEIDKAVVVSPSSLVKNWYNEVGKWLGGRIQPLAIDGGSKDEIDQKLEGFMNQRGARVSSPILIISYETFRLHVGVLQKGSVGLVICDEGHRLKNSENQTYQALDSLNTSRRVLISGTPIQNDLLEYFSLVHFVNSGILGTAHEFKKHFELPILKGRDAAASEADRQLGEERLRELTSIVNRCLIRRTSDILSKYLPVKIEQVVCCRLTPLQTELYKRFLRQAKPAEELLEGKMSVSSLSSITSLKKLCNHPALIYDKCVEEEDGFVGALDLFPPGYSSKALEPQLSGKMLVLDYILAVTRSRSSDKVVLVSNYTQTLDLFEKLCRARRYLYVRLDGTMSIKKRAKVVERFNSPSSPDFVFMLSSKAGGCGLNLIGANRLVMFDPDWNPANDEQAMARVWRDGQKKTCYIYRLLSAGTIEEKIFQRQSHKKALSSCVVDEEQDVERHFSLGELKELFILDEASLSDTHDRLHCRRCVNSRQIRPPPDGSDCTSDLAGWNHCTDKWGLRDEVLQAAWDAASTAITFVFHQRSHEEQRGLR

G-protein coupled receptor 55, sequence (Q9Y2T6 whole entry): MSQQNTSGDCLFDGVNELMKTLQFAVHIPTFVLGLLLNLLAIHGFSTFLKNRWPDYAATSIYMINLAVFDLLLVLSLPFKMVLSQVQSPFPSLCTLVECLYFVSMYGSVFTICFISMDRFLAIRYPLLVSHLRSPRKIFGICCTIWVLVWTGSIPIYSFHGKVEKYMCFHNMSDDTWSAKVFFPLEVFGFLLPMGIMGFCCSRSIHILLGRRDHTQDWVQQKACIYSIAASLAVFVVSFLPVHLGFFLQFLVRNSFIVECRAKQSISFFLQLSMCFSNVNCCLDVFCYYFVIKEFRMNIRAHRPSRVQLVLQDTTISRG

SMILES | EC50 [1] | IC50 [2] | AC50 [3] | AC50 [4] | AC50 [5] | IC50 [6] | IC50 [7] | IC50 [8] | IC50 [9] | EC50 [10] | AC50 [11] | AC50 [12]
Cc1cc(NC(=O)c2oc3ccccc3c2C)ccc1-n1cnnn1 | 2.68 µM (active) | > 80 µM (inactive) | > 100 µM (inactive) | 0.558 µM (active) | > 350 µM (inactive) | – | – | – | – | – | – | –
Cc1ccc(-c2csc3nc4c5ccccc5c(NCCCN(C)C)nn4c(=O)c23)cc1 | – | – | – | – | – | > 20 µM (inactive) | 13.7 µM (active) | 3.7 µM (active) | 40 µM (active) | > 89.2 µM (inactive) | 13.6 µM (active) | 13.3 µM (active)
